Measurements taken from patent US9399646B2 (Genentech, Inc., priority 2010, dated 2016).

Columns and labels:
ER-α in MCF-7 cells = molecular target: T1, ER-α in MCF-7 cells (Homo sapiens, UniProt P03372); experiment: Breast cancer cell ER-α in cell western assay (SP1); format: cell-based; design: endogenous in cells; host or cells: MCF-7; settings: 4 or 24 hr post compound addition; for Emax: MCF7, SP1 antibody, read-out: ER-α In Cell Western Assay (SP1) Max Response; for DC50: SP1 antibody, read-out: ER-α In Cell Western Assay (SP1) IC50
T1 sequence (P03372 1-595): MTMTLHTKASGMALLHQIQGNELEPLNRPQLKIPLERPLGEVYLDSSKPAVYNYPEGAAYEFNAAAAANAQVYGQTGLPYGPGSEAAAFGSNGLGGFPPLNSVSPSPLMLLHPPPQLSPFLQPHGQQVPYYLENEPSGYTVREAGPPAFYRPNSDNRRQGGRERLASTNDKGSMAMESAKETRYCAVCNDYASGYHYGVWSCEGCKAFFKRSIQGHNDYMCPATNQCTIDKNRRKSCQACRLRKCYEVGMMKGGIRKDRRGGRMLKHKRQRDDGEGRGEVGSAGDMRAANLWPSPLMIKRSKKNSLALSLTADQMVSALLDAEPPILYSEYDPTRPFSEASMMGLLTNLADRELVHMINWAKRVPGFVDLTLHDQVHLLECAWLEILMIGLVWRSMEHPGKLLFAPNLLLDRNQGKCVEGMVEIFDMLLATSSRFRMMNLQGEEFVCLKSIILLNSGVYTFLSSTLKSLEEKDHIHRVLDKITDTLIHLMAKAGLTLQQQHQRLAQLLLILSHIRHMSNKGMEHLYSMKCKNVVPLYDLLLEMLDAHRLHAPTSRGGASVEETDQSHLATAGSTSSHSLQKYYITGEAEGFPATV
Procedure: MCF-7 cells were adjusted to a concentration of 200,000 cells per mL in RPMI containing 10% charcoal-stripped FBS and 20 mM HEPES. 16 microliters of the cell suspension (3200 cells) was added to each well of a poly-D-lysine 384 well plate, and the cells were incubated overnight to allow the cells to adhere. The following day an eleven point, serial semilog dilution of each compound was added to the cells in 16 μL at a final concentration ranging from 0.3-0.000003 μM. At 4 or 24 hr post compound addition, the cells were fixed (10% formalin in PBS) for 20 minutes. Cells were permeablized in PBS 0.1% Triton and blocked with LICOR blocking buffer (50 μl/well, 90°). The wells were then incubated overnight at 4° C. with SP1 rabbit monoclonal Ab (Thermo Scientific) diluted 1:1000 in LICOR blocking buffer/0.1% Tween-20. Wells which were treated with blocking buffer with Tween but no antibody were used as a background control. Wells were washed with 0.1% Tween-20/PBS and then incubated in goat anti-rabbit IRDye™ 800CW (LICOR Inc.; 1:1000) and DRAQ5 DNA dye (1:2000 for 2 mM stock) diluted in LICOR blocking buffer containing 0.1% Tween-20 and 0.01% SDS for 60 minutes. Cells were washed (50 μl/well, 5′ each) in 0.1% Tween-20/PBS. Plates were scanned on a LICOR Odyssey infrared imaging system. Integrated intensities in the 800 nm channel and 700 nm channel were measured to determine levels of ER and DNA respectively. Percent ER levels were determined as follows: (Integrated intensity 800 nm sample/integrated intensity 700 nm sample)/(Integrated intensity 800 nm untreated cells/integrated intensity 700 nm untreated cells)×100=% ER levels.

MCF-7 cells = experiment: Breast cancer cell viability assay (CellTiter-Glo, 5 days); format: cell-based; settings: 5 days' compound exposure; for IC50: Homo sapiens, MCF7, 120 h
Procedure: MCF-7 cells were adjusted to a concentration of 20,000 cells per mL in RPMI containing 10% FBS and 20 mM HEPES. 16 microliters of the cell suspension (320 cells) was added to each well of a 384 well plate, and the cells were incubated overnight to allow the cells to adhere. The following day an eleven point, serial semilog dilution of each compound was added to the cells in 16 μL at a final concentration ranging from 0.3-0.000003 μM. After 5 days' compound exposure, 16 μL of CellTiter-GLo (Promega, Madison Wis.) was added to the cells the relative luminescence units (RLUs) of each well was determined CellTiter-Glo added to 32 μL of medium without cells was used to obtain a background value. The Percent viability of each sample was determined as follows: (RLU sample-RLU background/RLU untreated cells-RLU background)×100=% viability.

| SMILES | Emax (ER-α in MCF-7 cells) [%] | MCF7 Viability Assay Max Response (MCF-7 cells) | IC50 (MCF-7 cells) [nM] | DC50 (ER-α in MCF-7 cells) [nM] |
| --- | --- | --- | --- | --- |
| CC/C(=C(/c1ccc(/C=C/C(=O)O)cc1)c1ccc2[nH]nnc2c1)c1ccccc1 [Compound 3, (E)-3-(4-((E)-1-(1H-Benzo[d][1,2,3]triazol-5-yl)-2-phenylbut-1-en-1-yl)phenyl)acrylic acid] | ≥ 40 | ++ (++ = a single % value ≧ 40%) | ≤ 100 | – |
| CC/C(=C(/c1ccc(/C=C/C(=O)O)cc1)c1ccc2cn[nH]c2c1)c1ccccc1 [Compound 5, (E)-3-(4-((E)-1-(1H-Indazol-6-yl)-2-phenylbut-1-en-1-yl)phenyl)acrylic acid] | ≥ 40 | ++ (++ = a single % value ≧ 40%) | > 100 | – |
| CC/C(=C(/c1ccc(/C=C/C(=O)O)cc1)c1cccc2[nH]ncc12)c1ccccc1 [Compound 18, (E)-3-(4-((E)-1-(1H-Indazol-4-yl)-2-phenylbut-1-en-1-yl)phenyl)acrylic acid] | ≥ 40 | ++ (++ = a single % value ≧ 40%) | ≤ 100 | – |
| CC/C(=C(/c1ccc(/C=C/C(=O)O)cc1)c1cccc2[nH]ncc12)c1ccccc1C [Compound 21, (E)-3-(4-((E)-1-(1H-Indazol-4-yl)-2-(o-tolyl)but-1-en-1-yl)phenyl)acrylic acid] | ≥ 40 | ++ (++ = a single % value ≧ 40%) | ≤ 100 | ≤ 100 |
| CC/C(=C(/c1ccc(/C=C/C(=O)O)cc1)c1cccc2[nH]ncc12)c1ccccc1Cl [Compound 22, (E)-3-(4-((E)-2-(2-Chlorophenyl)-1-(1H-indazol-4-yl)but-1-en-1-yl)phenyl)acrylic acid] | ≥ 40 | ++ (++ = a single % value ≧ 40%) | ≤ 100 | ≤ 100 |
| CC/C(=C(/c1ccc(/C=C/C(=O)O)cc1)c1ccc2[nH]ncc2c1)c1cccs1 [Compound 23, (E)-3-(4-((E)-1-(1H-Indazol-5-yl)-2-(thiophen-2-yl)but-1-en-1-yl)phenyl)acrylic acid] | ≥ 40 | ++ (++ = a single % value ≧ 40%) | ≤ 100 | ≤ 100 |
| CC/C(=C(/c1ccc(/C=C/C(=O)O)cc1)c1ccc2[nH]ncc2c1)c1ccsc1 [Compound 24, (E)-3-(4-((E)-1-(1H-Indazol-5-yl)-2-(thiophen-3-yl)but-1-en-1-yl)phenyl)acrylic acid] | ≥ 40 | ++ (++ = a single % value ≧ 40%) | ≤ 100 | ≤ 100 |
| CC/C(=C(/c1ccc(/C=C/C(=O)O)cc1)c1ccc2[nH]ncc2c1)c1ccccn1 [Compound 25, (E)-3-(4-((E)-1-(1H-Indazol-5-yl)-2-(pyridin-2-yl)but-1-en-1-yl)phenyl)acrylic acid] | ≥ 40 | ++ (++ = a single % value ≧ 40%) | > 100 | > 100 |
| CC/C(=C(/c1ccc(/C=C/C(=O)O)cc1)c1ccc2[nH]ncc2c1)c1ccccc1-c1ccccc1 [Compound 28, (E)-3-(4-((E)-2-([1,1′-Biphenyl]-2-yl)-1-(1H-indazol-5-yl)but-1-en-1-yl)phenyl)acrylic acid] | ≥ 40 | ++ (++ = a single % value ≧ 40%) | > 100 | > 100 |
| CC/C(=C(/c1ccc(/C=C/C(=O)O)cc1)c1cccc2[nH]ncc12)c1ccc(F)cc1Cl [Compound 30, (E)-3-(4-((E)-2-(2-Chloro-4-fluorophenyl)-1-(1H-indazol-4-yl)but-1-en-1-yl)phenyl)acrylic acid] | ≥ 40 | ++ (++ = a single % value ≧ 40%) | ≤ 100 | ≤ 100 |
| CC/C(=C(/c1ccc(/C=C/C(=O)O)cc1)c1cccc2[nH]ncc12)c1ccccc1F [Compound 31, (E)-3-(4-((E)-2-(2-Fluorophenyl)-1-(1H-indazol-4-yl)but-1-en-1-yl)phenyl)acrylic acid] | ≥ 40 | ++ (++ = a single % value ≧ 40%) | ≤ 100 | ≤ 100 |
| CC/C(=C(/c1ccc(/C=C/C(=O)O)cc1)c1ccc2[nH]ncc2c1)c1cccc2ccccc12 [Compound 50, (E)-3-(4-((E)-1-(1H-Indazol-5-yl)-2-(naphthalen-1-yl)but-1-en-1-yl)phenyl)acrylic acid] | ≥ 40 | ++ (++ = a single % value ≧ 40%) | ≤ 100 | ≤ 100 |
| CC/C(=C(/c1ccc(/C=C/C(=O)O)cc1)c1ccnc2[nH]ncc12)c1ccccc1 [Compound 56, (E)-3-(4-((E)-2-Phenyl-1-(1H-pyrazolo[3,4-b]pyridin-4-yl)but-1-en-1-yl)phenyl)acrylic acid] | ≥ 40 | ++ (++ = a single % value ≧ 40%) | > 100 | ≤ 100 |
| CC/C(=C(/c1ccc(/C=C/C(=O)O)cc1)c1ccc2[nH]ncc2c1)c1ccc(N(C)C)cc1 [Compound 62, (E)-3-(4-((E)-2-(4-(Dimethylamino)phenyl)-1-(1H-indazol-5-yl)but-1-en-1-yl)phenyl)acrylic acid] | ≥ 40 | ++ (++ = a single % value ≧ 40%) | > 100 | > 100 |
| CC/C(=C(/c1ccc(/C=C/C(=O)O)cc1)c1ccc2[nH]ccc2c1)c1ccccc1 [Compound 64, (E)-3-(4-((E)-1-(1H-Indol-5-yl)-2-phenylbut-1-en-1-yl)phenyl)acrylic acid] | ≥ 40 | ++ (++ = a single % value ≧ 40%) | ≤ 100 | – |
| CC/C(=C(/c1ccc(/C=C/C(=O)O)cc1)c1ccc2[nH]c(=O)oc2c1)c1ccccc1 [Compound 66, (E)-3-(4-((E)-1-(2-Oxo-2,3-dihydrobenzo[d]oxazol-6-yl)-2-phenylbut-1-en-1-yl)phenyl)acrylic acid] | ≥ 40 | ++ (++ = a single % value ≧ 40%) | ≤ 100 | – |
| CC/C(=C(/c1ccc(/C=C/C(=O)O)cc1)c1cnc2[nH]ncc2c1)c1ccccc1 [Compound 67, (E)-3-(4-((E)-2-Phenyl-1-(1H-pyrazolo[3,4-b]pyridin-5-yl)but-1-en-1-yl)phenyl)acrylic acid] | ≥ 40 | ++ (++ = a single % value ≧ 40%) | > 100 | > 100 |
| CC/C(=C(/c1ccc(/C=C/C(=O)O)cc1)c1cnc2[nH]ccc2c1)c1ccccc1 [Compound 68, (E)-3-(4-((E)-2-Phenyl-1-(1H-pyrrolo[2,3-b]pyridin-5-yl)but-1-en-1-yl)phenyl)acrylic acid] | ≥ 40 | ++ (++ = a single % value ≧ 40%) | > 100 | > 100 |
| CC/C(=C(/c1ccc(/C=C/C(=O)O)cc1)c1ccc2c(cnn2C(F)F)c1)c1ccc(F)cc1Cl [Compound 401, (E)-3-(4-((E)-2-(2-Chloro-4-fluorophenyl)-1-(1-(difluoromethyl)-1H-indazol-5-yl)but-1-en-1-yl)phenyl)acrylic acid] | – | – | > 100 | – |
